Measurements reported in patent publication US20240166626A1, “Compounds and Methods for Preventing, Treating, or Ameliorating Airway Disease” (THOMAS JEFFERSON UNIVERSITY, priority 2021, published 2024).

Biological target: β2AR (Homo sapiens, UniProt P07550)
Assay: cAMP measurement by ELISA in HEK 293 cells stably overexpressing β2AR
Type: cell-based
Description: Schematic of screening methodologies for cAMP production and β-arrestin binding. Cells were treated with the unbiased beta-agonist isoproterenol (ISO)±test compounds. The primary high throughput screen utilized a luciferase-based cAMP biosensor, GLOSENSORTM (Promega), and an enzyme complementation-based assay, […]® (DiscoveRx). Independent secondary screening utilized a cAMP ELISA and BRET for β-arrestin recruitment. […] Secondary screen for cAMP production by ELISA. […] Cells were lysed and cAMP production was measured. […] Dose response curve for DFPQ as measured by BRET. […] Data for dose response curve was taken 12 min post ISO addition. n=3. […] Cells were lysed and cAMP production was measured by ELISA. […] Cells were read every three minutes for 18 minutes on a PolarStar Optima plate reader (BMG) to establish peak signal. […] Luminescence was determined at room temperature (23-25° C.) on a PolarStar Optima plate reader (BMG). […] Relative assay bias was calculated from the ratio of normalized cAMP and arrestin recruitment responses. […] BRET was measured using a Tecan Infinite F500 microplate reader. […] Bound [35 S]GTPγS was collected by rapid filtration on GF/B filters, washed 4 times with 4 ml of cold GTPγS wash buffer and analyzed by liquid scintillation counting. […] Immunoprecipitated proteins were separated by SDS-PAGE and analyzed by western blot using a β2AR C-terminal tail or phospho-specific antibody. […]

Chain of β2AR (P07550 whole entry): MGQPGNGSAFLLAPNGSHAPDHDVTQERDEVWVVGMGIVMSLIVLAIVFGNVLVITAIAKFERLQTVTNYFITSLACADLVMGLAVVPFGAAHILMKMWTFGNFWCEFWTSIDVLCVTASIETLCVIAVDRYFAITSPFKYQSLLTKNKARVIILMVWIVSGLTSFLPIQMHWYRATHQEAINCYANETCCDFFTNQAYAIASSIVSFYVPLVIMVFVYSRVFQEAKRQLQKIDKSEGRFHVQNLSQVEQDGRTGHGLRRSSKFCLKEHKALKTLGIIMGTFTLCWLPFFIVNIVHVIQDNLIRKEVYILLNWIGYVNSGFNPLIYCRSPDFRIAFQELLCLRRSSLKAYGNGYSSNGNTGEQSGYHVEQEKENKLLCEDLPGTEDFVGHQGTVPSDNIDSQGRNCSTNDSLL

## Fc1ccc(Nc2nc(NC3CCCCC3)c3ccccc3n2)cc1F [DFPQ, N^4-cyclohexyl-N^2-(3,4-difluorophenyl)quinazoline-2,4-diamine]
10 μM DFPQ, 1 μM ISO 10 min, FIG. 1B
  effect on ISO-stimulated cAMP production: no effect
Increasing concentrations up to 10 μM DFPQ, FIG. 1E
  effect on ISO dose response curves, cAMP production readout: no effect
